Source: patent US6828473B2, “Modulation of PDE11A activity” (Pfizer Inc., priority 2000, dated 2004)
Where a name gives a salt, the structure may show the parent alone.

Columns and labels:
[1] = tested on: pre-ejaculated epididymal murine spermatozoa; experiment: Sperm capacitation measured with chlorotetracycline (CTC); format: cell-based, mouse; conditions: for number of capacitated sperm: P<0.001
Procedure: The extent of capacitation was measured using chlorotetracycline (CTC) and the degree of capacitation was assessed in control and adenosine-5′-triphosphate (ATP)-treated samples. All data is expressed as mean+s.e.mean, n=3, ***=P<0.001, Student's t-test).
Sperm suspensions were prepared by releasing the contents of mouse epididymides from 3 PDE11 knockout (KO) and 3 wild type (WT) mice into Tyrodes media. The extent of capacitation was measured using chlorotetracycline (CTC), 750 μM for 15 min at 37° C. The patterns of CTC fluorescence were observed under microscopy (Reference: Fraser, L. R. & Herod, J. E. Expression of capacitation-dependent changes in chlortetracycline fluorescence patterns in mouse spermatozoa requires a suitable glycolysable substrate. J. Reprod. Fert., 1990; 88(2): 611-21). Patterns reflected the functional state of spermatozoa, i.e. capacitated, uncapacitated and acrosome loss.

recombinant human PDE7 = experiment: PDE inhibition SPA assay, PDE7; format: biochemical; conditions: geometric mean of at least 3 determinations; substrate <= 1/3 Km
[2] = target: T1, PDE6 isolated from bovine retina (Bos taurus, UniProt P11541+P23439); experiment: PDE inhibition SPA assay, PDE6; format: biochemical
T1 construct: PDE6 was isolated from bovine retina; from tissue; host or cells: bovine retina
T1 sequence (P11541 2-856 limits assumed): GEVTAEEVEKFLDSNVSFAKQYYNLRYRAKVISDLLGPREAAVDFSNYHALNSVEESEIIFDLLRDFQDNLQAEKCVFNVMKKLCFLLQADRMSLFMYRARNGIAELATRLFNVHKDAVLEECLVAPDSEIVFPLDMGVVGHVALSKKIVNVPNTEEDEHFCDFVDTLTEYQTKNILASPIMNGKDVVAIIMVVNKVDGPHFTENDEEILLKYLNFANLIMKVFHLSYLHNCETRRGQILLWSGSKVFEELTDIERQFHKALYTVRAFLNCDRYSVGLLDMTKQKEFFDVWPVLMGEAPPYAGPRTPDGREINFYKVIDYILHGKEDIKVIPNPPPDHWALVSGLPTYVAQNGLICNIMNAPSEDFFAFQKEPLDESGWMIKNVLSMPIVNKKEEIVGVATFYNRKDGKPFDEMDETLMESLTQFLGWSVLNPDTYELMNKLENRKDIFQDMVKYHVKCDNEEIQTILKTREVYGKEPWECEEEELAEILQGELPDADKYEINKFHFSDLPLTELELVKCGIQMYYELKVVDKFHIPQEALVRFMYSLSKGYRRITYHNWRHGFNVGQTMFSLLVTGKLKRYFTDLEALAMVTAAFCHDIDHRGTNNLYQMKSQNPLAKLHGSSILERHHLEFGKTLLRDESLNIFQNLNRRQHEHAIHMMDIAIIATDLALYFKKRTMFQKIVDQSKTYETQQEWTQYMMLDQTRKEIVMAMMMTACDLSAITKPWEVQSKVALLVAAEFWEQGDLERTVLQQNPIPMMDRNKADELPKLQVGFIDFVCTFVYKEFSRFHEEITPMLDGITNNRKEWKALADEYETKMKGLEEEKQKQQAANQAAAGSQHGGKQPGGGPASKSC
T1 sequence (P23439 2-850 limits assumed): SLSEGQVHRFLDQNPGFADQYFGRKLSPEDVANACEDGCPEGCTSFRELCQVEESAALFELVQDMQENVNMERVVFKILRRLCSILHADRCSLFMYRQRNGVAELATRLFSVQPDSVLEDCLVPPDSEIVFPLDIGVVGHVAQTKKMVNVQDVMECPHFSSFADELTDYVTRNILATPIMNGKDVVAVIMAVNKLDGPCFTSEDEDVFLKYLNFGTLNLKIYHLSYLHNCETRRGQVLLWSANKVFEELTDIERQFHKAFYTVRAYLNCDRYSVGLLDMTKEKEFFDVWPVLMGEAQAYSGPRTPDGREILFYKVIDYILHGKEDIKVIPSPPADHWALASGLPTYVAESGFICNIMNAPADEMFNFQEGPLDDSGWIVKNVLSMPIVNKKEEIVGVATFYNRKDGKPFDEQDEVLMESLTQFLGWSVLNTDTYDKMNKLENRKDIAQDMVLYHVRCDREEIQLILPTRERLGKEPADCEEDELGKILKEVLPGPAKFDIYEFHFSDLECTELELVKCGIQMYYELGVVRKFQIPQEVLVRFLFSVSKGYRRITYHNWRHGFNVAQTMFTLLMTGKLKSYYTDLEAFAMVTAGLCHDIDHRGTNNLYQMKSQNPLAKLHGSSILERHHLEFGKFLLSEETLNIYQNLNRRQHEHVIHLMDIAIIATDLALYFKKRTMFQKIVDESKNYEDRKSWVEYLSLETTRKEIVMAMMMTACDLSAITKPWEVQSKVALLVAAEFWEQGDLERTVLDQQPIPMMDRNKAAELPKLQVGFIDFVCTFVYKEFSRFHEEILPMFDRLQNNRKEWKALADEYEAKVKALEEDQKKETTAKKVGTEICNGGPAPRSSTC

recombinant human PDE8 = experiment: PDE inhibition SPA assay, PDE8; format: biochemical; conditions: geometric mean of at least 3 determinations; substrate <= 1/3 Km

IC50 (recombinant human PDE7) [µM] | IC50 [2] [µM] | IC50 (recombinant human PDE8) [µM] | SMILES | number of capacitated murine spermatozoa ([1]; 1 hr incubation, both PDE11 KO and WT samples, concentration not given) | number of capacitated sperm ([1]; ATP 1.0 mM, spermatozoa obtained from PDE11 KO mice only) | number of capacitated sperm ([1]; ATP 2.5 mM, 1 hr incubation, all murine spermatozoa samples (PDE11 KO and WT))
 |  |  | Nc1ncnc2c1ncn2[C@@H]1O[C@H](COP(=O)(O)OP(=O)(O)OP(=O)(O)O)[C@@H](O)[C@H]1O [ATP, adenosine-5′-triphosphate] | significantly increased | significantly increased | significantly increased
> 100 | 4.7 | > 100 | O=C(O)C1CCN(c2nc(NCc3ccc4c(c3)OCO4)c3cc(Cl)ccc3n2)CC1 [UK-227,786 (E4021), 1-[4-[(1,3-benzodioxol-5-ylmethyl)amino]-6-chloro-2-quinazolinyl]-4-piperidinecarboxylic acid, monohydrochloride] |  |  | 
> 100 |  | > 100 | CN1CC(=O)N2[C@H](c3ccc4c(c3)OCO4)c3[nH]c4ccccc4c3C[C@@H]2C1=O [UK-336,017 (IC351), (6R, 12aR)-6-(1,3-benzodioxol-5-yl)-2,3,6,7,12,12a-hexahydro-2-methyl-pyrazino[1′,2′:1,6]pyrido[3,4-b]indole-1,4-dione] |  |  | 

SMILES | IC50 (recombinant human PDE7) [µM] | IC50 [2] [µM] | IC50 (recombinant human PDE8) [µM] | number of capacitated murine spermatozoa ([1]; 1 hr incubation, both PDE11 KO and WT samples, concentration not given) | number of capacitated sperm ([1]; ATP 1.0 mM, spermatozoa obtained from PDE11 KO mice only) | number of capacitated sperm ([1]; ATP 2.5 mM, 1 hr incubation, all murine spermatozoa samples (PDE11 KO and WT))
CCCc1nn(C)c2c(=O)[nH]c(-c3cc(S(=O)(=O)N4CCN(C)CC4)ccc3OCC)nc12 [Sildenafil, sildenafil] | 19.7 |  |  |  |  | 
